The assay concerns P388 leukemia ip, CD2F1 mice, survival T/C. Nature of the assay: NCI In Vivo Anticancer Drug Screen. Data for tumor model P388 Leukemia (intraperitoneal) in CD2F1 (CDF1) mice. The following applies: endpoint: median survival time, higher = longer survival. In short, it runs like this:
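Mice carrying the transplanted tumor received test compound or vehicle. Survival was recorded in each group, and the value is the treated-group measurement divided by that of the vehicle-treated control group.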

Where [1] appears, read: dose: 50.0 mg/kg/injection, schedule: Q01DX005 (ip), vehicle: Klucel (hydroxypropylcellulose) (HPC).
Where [2] appears, read: dose: 100.0 mg/kg/injection, schedule: Q01DX005 (ip), vehicle: Klucel (hydroxypropylcellulose) (HPC).
[3] abbreviates: dose: 200.0 mg/kg/injection, schedule: Q01DX005 (ip), vehicle: Klucel (hydroxypropylcellulose) (HPC).
Setting [4] is: dose: 50.0 mg/kg/injection, schedule: Q01DX009 (ip), vehicle: Klucel (hydroxypropylcellulose) (HPC).
Setting [5] is: dose: 100.0 mg/kg/injection, schedule: Q01DX009 (ip), vehicle: Klucel (hydroxypropylcellulose) (HPC).
Setting [6] is: dose: 100.0 mg/kg/injection, schedule: Q01DX009 (ip), vehicle: saline with Tween-80.
Where [7] appears, read: dose: 200.0 mg/kg/injection, schedule: Q01DX009 (ip), vehicle: saline with Tween-80.
Where [8] appears, read: dose: 6.25 mg/kg/injection, schedule: Q01DX009 (ip), vehicle: water.
[9] abbreviates: dose: 12.5 mg/kg/injection, schedule: Q01DX009 (ip), vehicle: water.

Several values for one entry are separate records, joined by “and”; a condition that tells them apart may be missing. Identical values can stand only once. Toxic doses and inconclusive results are not listed.

Take `COc1cc2cc(c1Cl)NC(=O)CC(OC(=O)C(C)N(C)C(=O)C(C)C)C1(C)OC1C(C)C1CC(O)(NC(=O)O1)C(OC)/C=C/C=C(C)C2OC` (centres undefined): the T/C is 161 % of control (dose: 8.0 micrograms/kg/injection, schedule: Q01DX009 (ip), vehicle: distilled water + Tween-80 + alcohol); 155 % of control and 179 % of control (dose: 16.0 micrograms/kg/injection, schedule: Q01DX009 (ip), vehicle: distilled water + Tween-80 + alcohol); 154 % of control and 184 % of control (dose: 32.0 micrograms/kg/injection, schedule: Q01DX009 (ip), vehicle: distilled water + Tween-80 + alcohol); 86 % of control (dose: 64.0 micrograms/kg/injection, schedule: Q01DX009 (ip), vehicle: distilled water + Tween-80 + alcohol).
With `COc1ccc(NC(=O)Nc2nc3c(C)cccc3s2)cc1`, the T/C by setting is: under setting [1], 101 % of control; under setting [2], 98 % of control; under setting [3], 93 % of control.
On to `CCn1c(=O)c2[nH]c(Cl)nc2n(CCOC)c1=O`, for which the T/C reads like this: under setting [4], 116 % of control; under setting [5], 96 % of control; (dose: 200.0 mg/kg/injection, schedule: Q01DX009 (ip), vehicle: Klucel (hydroxypropylcellulose) (HPC)) 111 % of control.
`O=C1CCSc2ccccc21`: the T/C under setting [6] is 95 % of control and the T/C under setting [7] is 109 % of control.
For `Cc1ccc(NN=O)nc1`, the T/C was 151 % of control and 152 % of control under setting [8]; 153 % of control and 183 % of control under setting [9].
As to `S=c1ncnc2cc3[nH][nH]cc3cc12`, the T/C reads like this: (dose: 50.0 mg/kg/injection, schedule: Q01DX005 (ip), vehicle: saline with Tween-80) 90 % of control; (dose: 100.0 mg/kg/injection, schedule: Q01DX005 (ip), vehicle: saline with Tween-80) 86 % of control; (dose: 200.0 mg/kg/injection, schedule: Q01DX005 (ip), vehicle: saline with Tween-80) 92 % of control.
For `CCCCCCCCCCCCCCCCOc1ccc(/C=N/Nc2ccccc2)cc1OC`, the T/C is 88 % of control (dose: 50.0 mg/kg/injection, schedule: Q01DX009 (ip), vehicle: saline with Tween-80) and 93 % of control under setting [6].
For `CC12C=CC(O1)C1C(=O)OC(=O)C12` (centres undefined), the T/C (dose: 60.0 mg/kg/injection, schedule: Q01DX005 (ip), vehicle: saline with Tween-80) was 101 % of control and the T/C (dose: 120.0 mg/kg/injection, schedule: Q01DX005 (ip), vehicle: saline with Tween-80) is 90 % of control.
For `Cc1ccc(S(=O)(=O)C23N=NC(C)(C)C2C2CC3C3CN=NC32)cc1` (centres undefined), the T/C is, setting by setting: (dose: 100.0 mg/kg/injection, schedule: Q01DX001 (ip), vehicle: Klucel (hydroxypropylcellulose) (HPC)) 103 % of control; (dose: 200.0 mg/kg/injection, schedule: Q01DX001 (ip), vehicle: Klucel (hydroxypropylcellulose) (HPC)) 109 % of control; (dose: 400.0 mg/kg/injection, schedule: Q01DX001 (ip), vehicle: Klucel (hydroxypropylcellulose) (HPC)) 102 % of control.
Take `O=C(O)C1CCC[N-]1.[Cl][Pd][Cl]` (centres undefined): the T/C under setting [8] was 105 % of control; the T/C under setting [9] was 96 % of control; the T/C (dose: 25.0 mg/kg/injection, schedule: Q01DX009 (ip), vehicle: water) is 100 % of control; the T/C (dose: 50.0 mg/kg/injection, schedule: Q01DX009 (ip), vehicle: water) was 114 % of control; the T/C (dose: 100.0 mg/kg/injection, schedule: Q01DX009 (ip), vehicle: water) was 93 % of control.
With `CC(=O)OC(C)C(C)[N+](C)(C)C` (centres undefined), the T/C (dose: 100.0 mg/kg/injection, schedule: Q04DX002 (ip), vehicle: saline) is 94 % of control.
With `COc1cccc2sc(-c3ccccc3)cc(=O)c12`, the T/C under setting [1] was 93 % of control, the T/C under setting [2] was 93 % of control and the T/C under setting [3] is 96 % of control.
In the case of `COC1OC2COC(c3ccccc3)OC2C2OC(c3ccccc3)OC12` (centres undefined), the T/C was 116 % of control (dose: 1.56 mg/kg/injection, schedule: Q01DX009 (ip), vehicle: other); 106 % of control (dose: 3.13 mg/kg/injection, schedule: Q01DX009 (ip), vehicle: other); 119 % of control (dose: 6.25 mg/kg/injection, schedule: Q01DX009 (ip), vehicle: other); 113 % of control (dose: 12.5 mg/kg/injection, schedule: Q01DX009 (ip), vehicle: other); 113 % of control and 87 % of control (dose: 25.0 mg/kg/injection, schedule: Q01DX009 (ip), vehicle: other); 91 % of control (dose: 50.0 mg/kg/injection, schedule: Q01DX009 (ip), vehicle: other). Besides, the T/C (dose: 100.0 mg/kg/injection, schedule: Q01DX009 (ip), vehicle: other) was 91 % of control; the T/C (dose: 200.0 mg/kg/injection, schedule: Q01DX009 (ip), vehicle: other) is 89 % of control; the T/C (dose: 400.0 mg/kg/injection, schedule: Q01DX009 (ip), vehicle: other) was 92 % of control.
Turning to `Cc1ccc(OP(=O)(Oc2ccc(C)cc2)Oc2ccc(C)cc2)cc1.Cc1ccc(OP(=O)(Oc2ccc(C)cc2)Oc2ccc(C)cc2)cc1.[Cl][Mn][Cl]`, the T/C is 110 % of control (dose: 100.0 mg/kg/injection, schedule: Q04DX003 (ip), vehicle: Klucel (hydroxypropylcellulose) (HPC)); 115 % of control (dose: 200.0 mg/kg/injection, schedule: Q04DX003 (ip), vehicle: Klucel (hydroxypropylcellulose) (HPC)); 114 % of control (dose: 400.0 mg/kg/injection, schedule: Q04DX003 (ip), vehicle: Klucel (hydroxypropylcellulose) (HPC)).
Turning to `CC(C)=CCC(/C=N/N=C(N)N)C(C)C` (centres undefined), the T/C is 96 % of control (dose: 6.25 mg/kg/injection, schedule: Q01DX005 (ip), vehicle: suspension in saline); 97 % of control (dose: 12.5 mg/kg/injection, schedule: Q01DX005 (ip), vehicle: suspension in saline); 96 % of control (dose: 25.0 mg/kg/injection, schedule: Q01DX005 (ip), vehicle: suspension in saline).
On to `C=C1SC(=Nc2cccc(OC)c2)N(c2nc(Cl)nc(Cl)n2)C1(C)C`, for which the T/C is 99 % of control (dose: 50.0 mg/kg/injection, schedule: Q01DX009 (ip), vehicle: saline); 102 % of control (dose: 100.0 mg/kg/injection, schedule: Q01DX009 (ip), vehicle: saline); 98 % of control (dose: 200.0 mg/kg/injection, schedule: Q01DX009 (ip), vehicle: saline).
Consider `Cn1c(=O)c2c(-c3ccc(Cl)cc3)onc2n(C)c1=O`, for which the T/C reads like this: under setting [4], 96 % of control; under setting [5], 100 % of control.
On to `COC1/C=C\CC2=CCCC=C2CC1` (centres undefined), for which the T/C (dose: 25.0 mg/kg/injection, schedule: Q01DX009 (sc), vehicle: olive oil, sesame oil, peanut oil) was 100 % of control; the T/C (dose: 50.0 mg/kg/injection, schedule: Q01DX009 (sc), vehicle: olive oil, sesame oil, peanut oil) is 97 % of control; the T/C (dose: 100.0 mg/kg/injection, schedule: Q01DX009 (sc), vehicle: olive oil, sesame oil, peanut oil) is 97 % of control; the T/C (dose: 200.0 mg/kg/injection, schedule: Q01DX009 (sc), vehicle: olive oil, sesame oil, peanut oil) is 95 % of control.
For the compound `C[S+](C)CCCl`, the T/C by setting is: (dose: 50.0 mg/kg/injection, schedule: Q01DX005 (ip), vehicle: saline) 100 % of control; (dose: 100.0 mg/kg/injection, schedule: Q01DX005 (ip), vehicle: saline) 107 % of control; (dose: 200.0 mg/kg/injection, schedule: Q01DX005 (ip), vehicle: saline) 109 % of control.
For `CC(=O)NS(=O)(=O)c1ccc(N)cc1`, the T/C runs as follows: (dose: 100.0 mg/kg/injection, schedule: Q01DX009 (ip), vehicle: saline sonified) 109 % of control; (dose: 132.0 mg/kg/injection, schedule: Q01DX009 (ip), vehicle: saline with Tween-80) 104 % of control; under setting [7], 104 % of control; (dose: 300.0 mg/kg/injection, schedule: Q01DX009 (ip), vehicle: saline with Tween-80) 113 % of control; (dose: 400.0 mg/kg/injection, schedule: Q01DX009 (ip), vehicle: saline sonified) 104 % of control.
With `O=NN(CCCl)C(=O)OCc1ccccc1`, the T/C is 101 % of control (dose: 3.12 mg/kg/injection, schedule: Q01DX001 (ip), vehicle: saline with Tween-80); 100 % of control and 123 % of control (dose: 6.25 mg/kg/injection, schedule: Q01DX001 (ip), vehicle: saline with Tween-80); 108 % of control and 113 % of control (dose: 12.5 mg/kg/injection, schedule: Q01DX001 (ip), vehicle: saline with Tween-80); 110 % of control and 123 % of control (dose: 25.0 mg/kg/injection, schedule: Q01DX001 (ip), vehicle: saline with Tween-80).
